Results: patent publication US20230054895A1, “METHODS FOR INDUCING BIOSTASIS IN A CELL, TISSUE OR ORGAN” (PRESIDENT AND FELLOWS OF HARVARD COLLEGE, priority 2020, published 2023)
“Also recorded” adds a separate entry of the source. Where a name gives a salt, the structure may show the parent alone. Read-outs that look alike come from different tables or passages of the source.

Legend:
[1] = test system: Xenopus tadpoles; test: Oxygen consumption of Xenopus tadpoles and embryos; assay type: in vivo, Xenopus laevis
[2] = test system: Xenopus embryos
Text: Developed tail length assay are used to assess embryo tail development during drug contact.
Automated embryo culture and imaging platform with machine vision processing. Analysis pipeline allows screening scale-up to hundreds of embryos at a given time.
The effects of ^2H2O on metabolism were examined in relation to biostasis in vivo. Xenopus embryos were contacted with 0.1×MMR media prepared with various concentrations of ^2H2O.

[3] = test system: Xenopus tadpoles; test: Movement / swimming of Xenopus tadpoles (stasis and reversal); assay type: in vivo, Xenopus laevis
Description: This slowing of motion is reversible; average movement of the Xenopus tadpoles is returned to pre-treatment levels following removal of Donepezil. […] The drug is removed at 30 minutes, as indicated by the hash-line. Movement resumed within 50 min after drug removal.
To determine if this slowing of movement is reversible, the drug was removed from the culture medium after 30 minutes (denoted by the hashed-line). Movement resumed at the pre-treatment level within 50 min after drug removal.
The effects of SNC-80 and the NCX1 inhibitor KB-R7943 mesylate (also referred to herein as “WC-60) were evaluated alone and in combination. Tadpoles were exposed to SNC-80 at 25 μM for 24 hr continuously, and swimming was assessed. […] Similarly, no effect on oxygen consumption was observed when tadpoles were exposed to KB-R7943 mesylate at 35 uM for 24 h continuously (FIG. 25B).

[4] = test system: Xenopus tadpoles; assay type: in vivo; settings: 50 uM for 30 min, recovery, tested over 24 h
Description: Tadpoles were then tested over a 24 h period in an automated behavior and cognitive testing platform to measure cognitive or motor function.
Finally, the cognitive and motor function performance of Xenopus tadpoles treated with Donepezil was assessed. […] Following the onset of stasis, the drug was removed and tadpoles were allowed to recover. Tadpoles were then tested over a 24 hour period in an automated behavior and cognitive testing platform to measure whether tadpoles that previously went through stasis had decreased cognitive and motor function performance.

[5] = test system: Xenopus tadpoles; test: Oxygen consumption of Xenopus tadpoles and embryos; assay type: in vivo, Xenopus laevis; remark: listed apart in the source
Text: Dynamic drug dosing used to examine stasis control parameters (10 tadpoles/chamber, n=3 replicates).
The oxygen consumption assay described herein above was used.

[6] = test system: Caco-2 cells; test: Intracellular ATP in Caco-2 cells; assay type: cell-based
[7] = test system: Caco-2 cells; test: Respiration / oxygen utilization in Caco-2 cells; assay type: cell-based
[8] = test system: Caco-2 cells; test: NAD/NADH live reporting in Caco-2 cells; assay type: cell-based; settings: 100 uM, p<0.0005, comparable to positive control sodium oxamate
[9] = test system: pig hind limb; test: Pig hind limb ex vivo perfusion on ULiSSES Platform (biostasis of a pig limb)
Description: Protocol for Evaluating the Effect of an Agent on Inducing Biostasis of a Pig Limb.
The establishment of biostasis in a mammal according to the methods described herein was evaluated in a pig limb model. Prior to removing a hind limb from the animal, a pre-operation blood draw was preformed to obtain a baseline. The hind limb was removed via an amputation, and four muscle biopsies were immediately taken. For use in RT-PCR, a first biopsy was stored at −80° C. to preserve RNA integrity. For histology, a second biopsy was fixed in formalin and stored at 2-4° C. or at room temperature. For use in ELISA, a third biopsy was snap frozen and stored at −80° C. Finally, in lieu of Microdialysis, a fourth biopsy was snap frozen and stored at −80° C.
The limb was first flushed with 4° C. heparinized Krebs Henseleit Buffer alone. The limb was then weighed and attached to the ULiSSES Platform. The Platform was run subnormothermic relative to […] (e.g., 18-23° C.). During the protocol, the limb was perfused with buffer alone (control) or buffer with SNC-80. Further description of the ULiSSES Platform can be found on the world wide web at www.techbriefs.com/component/content/article/tb/stories/blog/35406.
Following the limb being attached to the platform (time 0 hour), an RNA-preserving biopsy, a formalin-fixed biopsy, and a snap frozen biopsy were taken, and a perfusate sample was also taken. The “perfusate sample” is a sample that is assessed for arterial and […] blood gases, and subjected to a blood chemistry panel to measure sodium, potassium, glucose, and lactate levels. The perfusate sample is further snap frozen for other analyses, including RNAseq and cytokine analysis.
These sampling steps were further repeated at times 3 hours, 6 hours, 12 hours, and 24 hours. At times 9 hours, 15 hours, 18 hours, and 21 hours, a perfusate sample was taken.
The protocol was completed at time 24 hours. The limb was removed from the ULiSSES Platform and weighed. Separate, proof of concept experiments were performed as described above, but were completed at time 6 hours.

[10] = test system: Xenopus tadpoles; test: Movement / swimming of Xenopus tadpoles (stasis and reversal); assay type: in vivo, Xenopus laevis; remark: listed apart in the source
[11] = test system: mice; settings: FIG. 1, Rawls and Cowan 2006; cited from earlier work
[12] = test system: rats; settings: via delta-2 opioid receptor; cited from earlier work
[13] = high doses; cited from earlier work
[14] = test system: tadpoles; test: Life span of tadpoles in low-oxygen environments; assay type: in vivo, Xenopus; settings: 50% ^2H2O-treated tadpoles; MMR controls 6 hours
Description: At the indicated consumption rate, ^2H2O-treated tadpoles survive for >30 hours as compared to 6 hours for MMR controls.

[15] = test system: Xenopus tadpoles; test: Recovery from Donepezil-induced biostasis in tadpoles (tail length, oxygen consumption); assay type: in vivo; settings: 50 mM kestose in MMR vs MMR alone
Description: To determine if an agent plays a role in accelerating recovery following induction of biostasis, tadpoles can be treated with a biostasis-inducing agent as described herein, to induce biostasis and then transferred to a medium containing a test agent, or just medium. Recovery is assessed by assessing development rate following recovery (e.g., by measuring tadpole tail length), movement, and oxygen consumption.

[16] = 25 μM SNC-80, 24 hr continuously
[17] = compared to control treated limb
[18] = perfusate, vs control treatment
[19] = prior to and following treatment
[20] = 50% ^2H2O, 4 days biostasis, 3 days of recovery

CCN(CC)CCCN(c1ccccc1)C1Cc2ccccc2C1 [Aprindine]
oxygen consumption of free swimming tadpoles ([1]; 25 uM, after 20 min of exposure, vs vehicle controls): decreased oxygen consumption

COc1cc2c(cc1OC)C(=O)C(CC1CCN(Cc3ccccc3)CC1)C2 (stereo not shown) [Donepezil, 2-((1-Benzylpiperidin-4-yl)methyl)-5,6-dimethoxy-2,3-dihydro-1H-inden-1-one]
tail length ([2]; Xenopus tadpoles, compared to vehicle control or SNC-80): reduced tail length | time to slowing of motion after drug addition ([3]; 50 uM Donepezil): ≤ 10 min | time to resumption of movement after drug removal ([3]; 50 uM Donepezil removed at 30 minutes): ≤ 50 min | cognitive performance [4]: may have slightly improved cognitive performance

N=C(N)SCCc1ccc(OCc2ccc([N+](=O)[O-])cc2)cc1 [KB-R7943 mesylate]
swimming ([3]; KB-R7943 mesylate, data not shown): decreased swimming | oxygen consumption in tadpoles ([1]; 35 μM KB-R7943 mesylate, 24 h continuously): no effect | oxygen consumption in tadpoles ([1]; 35 μM KB-R7943 mesylate, 24 h continuously, listed as KB-R7943 Mesylate): No change

Oc1ccc2c3c1O[C@H]1c4[nH]c5ccccc5c4C[C@@]4(O)[C@@H](C2)N(CC2CC2)CC[C@]314 [Naltrindole]
blocking of the stasis-inducing effects of SNC-80 ([1]; concentrations up to 100 uM, 4 h of exposure): does not block

C=CCN1C[C@H](C)N([C@H](c2ccc(C(=O)N(CC)CC)cc2)c2cccc(OC)c2)C[C@H]1C [SNC-80, (+)-4-[(αR)-α-((2S,5R)-4-Allyl-2,5-dimethyl-1-piperazinyl)-3-methoxybenzyl]-N,N-diethylbenzamide]
reduction of embryo length compared to control ([2]; 0.4 μM SNC-80 (n=5) vs control (n=6), end of dosing period t=48 h): 19.8% | embryo length after drug removed ([2]; 0.4 μM SNC-80, after drug removal): caught up to controls | delay in impacting oxygen metabolism ([5]; 60 μM dose, dynamic dosing, 10 tadpoles/chamber, n=3): ~10 min | oxygen consumption and other metrics of metabolic rate ([5]; healthy tissues and Xenopus tadpoles, dose dependence): dose-dependent reduction in oxygen consumption | induction of biostasis ([3]; 25 μM SNC-80): not sufficient to induce biostasis | swimming [3, 16]: normal swimming | reversibility of movement arrest ([3]; removal / withdrawal of the drug): reversed upon withdrawal of the drug; also recorded: reversed by removal of the drug | intracellular ATP [6]: reduction in intracellular ATP levels | intracellular ATP ([6]; listed as SNC80): reduces intracellular ATP | respiration / oxygen utilization [7]: did not inhibit oxygen utilization | respiration / oxygen utilization ([7]; listed as SNC80): respiration unchanged | NAD/NADH ratio [8]: significant increase | relative metabolic rate in hind limb ([9]; 3 hours post treatment, slope vs control P<0.0001): marked reduction of metabolic rate; also recorded: noticeable reduction | oxygen uptake in hind limb ([9]; 10 hours post-treatment, vs control treated limb): noticeable reduction | oxygen uptake in hind limb ([9]; 24 hours post-treatment, vs control treated limb): marked reduction | change in mass of limb prior to and following treatment [9, 17]: larger change in a mass; also recorded: greater difference | oxygen uptake in hind limb [9, 17]: markedly reduces oxygen uptake | oxygen uptake levels relative to hypothermic conditions ([9]; data not shown): greater extent than hypothermic conditions | glucose level [9, 18]: No change; also recorded: not a marked difference | lactate level [9, 18]: No change; also recorded: not a marked difference | potassium level [9, 18]: No change; also recorded: not a marked difference | glycogen content inside the cells (PAS, optical density) [9, 19]: remains at a basal level | intercellular edema (histology of limb muscle) [9, 19]: increase in intercellular edema | muscle bundle area (histology) [9, 19]: did not increase significantly | relative metabolic rate in hind limb ([9]; vs control (perfusion medium alone)): markedly reduces metabolic rate | oxygen consumption in tadpoles [1, 16]: No change; also recorded: normal | oxygen consumption of embryos ([1]; Xenopus embryos, FIG. 7): reduces oxygen consumption | oxygen consumption in tadpoles ([1]; stasis inducing concentration of SNC-80 in combination with 100 uM Naltrindole): remains decreased | biostatic effect in Xenopus laevis tadpoles ([10]; FIG. 8): reversible biostatic effect | concentration resulting in arrest of tadpole movement ([10]; Xenopus tadpoles): > 100 µM | movement of whole animals ([10]; high-dose administration): completely arrested | hypothermia [11]: induces hypothermia | hypothermia [12]: induce hypothermia | convulsions [13]: produces convulsions at high doses

[2H]O[2H] [^2H2O, Deuterium oxide]
embryo length ([2]; 50% ^2H2O in 0.1×MMR): marked reduction in embryo length | adverse effects after recovery [2, 20]: do not exhibit adverse effects | developmental state after recovery [2, 20]: remain developmentally delayed | concentrations with no effect on tail length ([2]; Xenopus embryos): < 50% | concentrations that were toxic ([2]; Xenopus embryos, data not shown): > 70% | concentrations with no effect on swimming ([3]; tadpoles): < 50% | survival in low-oxygen environment at the indicated consumption rate [14]: > 30 h | oxygen consumption of embryos ([1]; 50% ^2H2O, within hours of contact): reduced oxygen consumption | time to slowed swimming ([10]; 50% ^2H2O): ≤ 10 min | concentrations that were toxic ([10]; tadpoles): > 70% | swimming after return to normal media ([10]; without ^2H2O, data not shown): returned to normal

OC[C@H]1O[C@@](CO)(OC[C@@]2(O[C@H]3O[C@H](CO)[C@@H](O)[C@H](O)[C@H]3O)O[C@H](CO)[C@@H](O)[C@@H]2O)[C@@H](O)[C@@H]1O [kestose]
recovery from biostasis induced via Donepezil [15]: faster recovery
